Reference: paper PMC8001788, “Decursin Alleviates Mechanical Allodynia in a Paclitaxel-Induced Neuropathic Pain Mouse Model” (Cells, 2021)

Biological target: transient receptor potential vanilloid 1 (TRPV1) (Homo sapiens, UniProt Q8NER1)
Assay: Fura-2 calcium imaging of capsaicin-induced Ca2+ in human TRPV1 stable HEK293 cells
Type: cell-based

Chain of transient receptor potential vanilloid 1 (TRPV1) (Q8NER1 whole entry): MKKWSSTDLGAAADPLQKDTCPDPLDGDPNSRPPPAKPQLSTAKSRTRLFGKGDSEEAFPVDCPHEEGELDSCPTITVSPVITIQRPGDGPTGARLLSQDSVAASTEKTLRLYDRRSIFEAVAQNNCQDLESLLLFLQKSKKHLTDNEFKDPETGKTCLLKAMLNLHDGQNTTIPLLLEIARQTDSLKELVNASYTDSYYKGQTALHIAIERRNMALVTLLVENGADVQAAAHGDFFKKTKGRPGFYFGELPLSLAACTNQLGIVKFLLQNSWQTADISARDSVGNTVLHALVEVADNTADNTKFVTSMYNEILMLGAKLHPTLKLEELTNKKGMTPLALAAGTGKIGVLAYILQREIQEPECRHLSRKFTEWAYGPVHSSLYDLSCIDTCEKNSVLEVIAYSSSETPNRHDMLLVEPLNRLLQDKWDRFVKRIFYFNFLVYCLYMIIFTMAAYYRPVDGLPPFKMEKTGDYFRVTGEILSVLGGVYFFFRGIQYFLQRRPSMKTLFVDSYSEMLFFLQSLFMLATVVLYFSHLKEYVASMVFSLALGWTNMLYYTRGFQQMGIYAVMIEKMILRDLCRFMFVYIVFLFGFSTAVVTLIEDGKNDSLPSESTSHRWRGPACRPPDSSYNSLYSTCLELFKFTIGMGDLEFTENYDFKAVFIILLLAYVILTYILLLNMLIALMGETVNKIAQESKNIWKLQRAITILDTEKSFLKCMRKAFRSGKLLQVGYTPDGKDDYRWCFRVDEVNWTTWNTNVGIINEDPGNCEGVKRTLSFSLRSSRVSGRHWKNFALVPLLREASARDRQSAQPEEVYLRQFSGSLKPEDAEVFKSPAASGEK

IC50: 690 ± 105 nM
Compound: CC(C)=CC(=O)O[C@H]1Cc2cc3ccc(=O)oc3cc2OC1(C)C [decursin]
